The values below come from patent publication US20190321302A1, “PRESERVATION OF MICROORGANISMS” (Yun NV, priority 2016, published 2019).

Read-outs that look alike come from different tables or passages of the source.

In data set [1] the test system is E. coli (DSM 1576), Ps. Aeruginosa (DSM 1128), C. albicans (DSM 1386), St. aureus (DSM 799), As. Niger (DSM 1988). The settings on record: base cream without capsules, pH 4.5, 4 weeks, concentrations as low as 0.1%.
Method: This was proven by conducting a challenge test on the cream (without the probiotic capsules) with the different preservative concentrations, according to the European Pharmacopeia (5.1.3).
Challenge tests are used to determine the efficacy of the antimicrobial conservation system for dermatological products. […] Sorbic acid was tested in concentrations : 0.5%-0.3%-0.1%-0% (Control).
The challenged organisms were E. coli (DSM 1576), Ps. Aeruginosa (DSM 1128), C. albicans (DSM 1386), St. aureus (DSM 799), As. Niger (DSM 1988).
Addition of the challenged organisms (in 100 gram product) happens at 10^6 CFU/ML. Sampling happens after 6 hours, 24 hours, 7-14 & 28 days. A challenge test is successful if at least a 3 log reduction is visible after 7 days for the bacteria and a 2 log reduction for the yeasts/molds after 14 days—3 log after 4 weeks. Results shown are after 4 weeks of sampling.
A further data set concerns probiotic capsules. As to conditions: for % survival: 3 months cold storage, relative to Blanc; for CFU/g: capsules 15% in basic cream pH 4.5, 3 months cold storage. As to the method: A basic cream without preservatives/perfume was used as basis for further tests. The preservative tested was Sorbic acid (2,4 hexadienoic acid), an organic acid with pKa 4.76 at 25° C. at different concentrations. The pH of the cream for all the tested conditions was adjusted to 4.5 using HCl/NaOH.
The probiotic capsules are suspended 15% (m/) in the cream base with the different preservative concentrations. To simulate release of the probiotics in vivo, the use of a Citric acid buffer was used in vitro. The citric acid will dissolve the membrane of the capsule and hereby release the probiotics inside the capsule. CA buffer was made by dissolving 31.2 g Na2HPo4 & 1.25 g Citric acid in 971.54 g Sterile water. The Final solution is isotonic with a pH of 7.4±0.2.
The sample creams are sampled in duplo after which it is dissolved in CA-buffer. A further 1/10 dilution series is made and 0.1 ml is spread on MRS agar plates using the ‘copacabana spread plating method’ with 5 glass beads diameter 4 mm. Plating happens in duplo and results (after 3 days incubation 37° C.) are calculated as CFU/ gram cream. Storage happens at 4° C. & 25° C. Sampling happens after 1-2-3 months.

The conditions of data set [2]: at 25° C.; cited from earlier work.

The pKa is the pH at which an ionisable group is half protonated. As to `CC=CC=CC(=O)O` [Sorbic acid, 2,4 hexadienoic acid], the “preservative effect in challenge test” value in data set [1] is “good preservative effect”. For the same compound, the “% survival” value in the data set on probiotic capsules (sorbic acid 0.03 %) is reported as 68%; in the data set on probiotic capsules (sorbic acid 0.1 %) it was 79%; in the data set with probiotic capsules (sorbic acid 0.3 %), 76%. Besides, the CFU/g in the data set with probiotic capsules (sorbic acid 0.03 %) was 6.E+07 CFU/g; in the data set with probiotic capsules (sorbic acid 0.1 %) it was 7.E+07 CFU/g; in the data set on probiotic capsules (sorbic acid 0.3 %), 7.E+07 CFU/g. Also, the pKa in data set [2] was 4.76.
